Key:
Rat A2A AR = target: T1, Rat A2A AR (Rattus norvegicus, UniProt P30543); test: Radioligand binding assay 1, rat A2A adenosine receptor; conditions: rat striatum, [3H]MSX-2
T1 construct: A2A adenosine receptors from rat striatum; from tissue; host or cells: rat striatum
Experimental: (§1) Rat brain preparations were used for A1- and A2A adenosine receptor (AR) and human recombinant cell samples for A1-, A2A- and A3 adenosine receptor radioligand binding studies. Affinity and selectivity was tested in displacement experiments with following radioligands: [^3H]CCPA for A1-adenosine receptors, [^3H]MSX-2 for A2A-receptors and [^3H]PSB-11 for A3-receptors. Results of these experiments are depicted in table 2b (human data) and table 2a (rat data). Radioligand binding test systems are e.g. generally described by Muller et al., Curr. Pharm. Des., 1996, 2, 501 and Weyler et al., ChemMedChem 2006, 1, 891 and references cited therein) These documents are incorporated herein by reference.

Rat A1 AR = target: T2, Rat A1 AR (Rattus norvegicus, UniProt P25099); test: Radioligand binding assay 1, rat A1 adenosine receptor; conditions: rat cortex, [3H]CCPA
T2 construct: Rat brain preparations were used for A1- and A2A adenosine receptor (AR); from tissue; host or cells: rat cortex
T2 sequence (P25099 1-326): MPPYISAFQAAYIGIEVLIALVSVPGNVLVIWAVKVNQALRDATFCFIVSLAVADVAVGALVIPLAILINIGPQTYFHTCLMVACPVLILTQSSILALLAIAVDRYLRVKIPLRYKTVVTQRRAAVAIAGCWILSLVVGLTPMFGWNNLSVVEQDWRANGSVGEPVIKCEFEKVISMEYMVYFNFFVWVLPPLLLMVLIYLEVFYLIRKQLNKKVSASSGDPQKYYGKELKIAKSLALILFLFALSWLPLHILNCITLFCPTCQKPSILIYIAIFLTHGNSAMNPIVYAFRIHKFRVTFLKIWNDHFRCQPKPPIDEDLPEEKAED
Experimental: as §1

T1 sequence (P30543 whole entry): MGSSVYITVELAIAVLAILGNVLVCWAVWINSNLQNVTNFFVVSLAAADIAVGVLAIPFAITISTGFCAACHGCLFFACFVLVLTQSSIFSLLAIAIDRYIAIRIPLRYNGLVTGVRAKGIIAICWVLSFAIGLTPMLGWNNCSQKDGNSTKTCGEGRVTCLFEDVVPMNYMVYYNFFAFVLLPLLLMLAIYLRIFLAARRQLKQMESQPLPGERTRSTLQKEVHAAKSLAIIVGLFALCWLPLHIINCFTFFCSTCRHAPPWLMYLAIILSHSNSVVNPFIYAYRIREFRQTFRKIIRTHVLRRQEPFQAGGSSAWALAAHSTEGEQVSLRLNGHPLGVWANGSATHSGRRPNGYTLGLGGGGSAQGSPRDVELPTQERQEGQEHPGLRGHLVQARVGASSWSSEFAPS

| Compound | Ki (Rat A2A AR) | Ki (Rat A1 AR) |
| --- | --- | --- |
| C#CCn1c(=O)c2c(nc(C#Cc3ccc4c(c3)OCO4)n2C)n(C)c1=O [drawing 476] | 166 ± 34 nM | > 10000 nM |
| C#CCn1c(=O)c2c(nc(C#Cc3cccc(F)c3)n2C)n(C)c1=O | 466 ± 36 nM | > 10000 nM |
| C#CCn1c(=O)c2c(nc(C#Cc3cccc(OCCN(C)C)c3)n2C)n(C)c1=O [drawing 473] | 49 ± 5 nM | 194 ± 33 nM |
| C#CCn1c(=O)c2c(nc(C#Cc3cccc(OCCCN(C)C)c3)n2C)n(C)c1=O [drawing 470] | 40 ± 1 nM | 186 ± 3 nM |
| C#CCn1c(=O)c2c(nc(C#Cc3cccc(OC)c3)n2C)n(CCCO)c1=O [drawing 484] | 11.8 ± 1.6 nM | 142 ± 8 nM |
| C#CCn1c(=O)c2c(nc(C#Cc3ccc(OC)c(OC)c3)n2C)n(CC)c1=O [drawing 487] | 47.2 ± 7.3 nM | > 3000 nM |
| C#CCn1c(=O)c2c(nc(C#Cc3cccc(OCc4ccoc4)c3)n2C)n(C)c1=O [drawing 479] | 66.4 ± 19 nM | > 1000 nM |
| C#CCn1c(=O)c2c(nc(C#Cc3ccc(OC)c(OC)c3)n2C)n(CC(O)CO)c1=O (stereo not drawn) [drawing 537] | 42.3 ± 5.7 nM | > 1000 nM |
| C#CCn1c(=O)c2c(nc(C#Cc3ccc(OC)c(OC)c3)n2C)n(C)c1=O [drawing 458] | 32.7 ± 6.1 nM | > 10000 nM |
| C#CCn1c(=O)c2c(nc(C#Cc3cccc(OC)c3)n2C)n(CC)c1=O [drawing 485] | 49.9 ± 9.7 nM | > 10000 nM |
| C#CCn1c(=O)c2c(nc(C#Cc3ccc(OC)c(F)c3)n2C)n(CC)c1=O | 52.6 ± 19.5 nM | ≥ 1000 nM |
| C#CCn1c(=O)c2c(nc(C#Cc3ccc(OC)c(OC)c3)n2C)n(CC(C)C)c1=O [drawing 517] | 5.54 ± 1.3 nM | ≥ 1000 nM |
| C#CCn1c(=O)c2c(nc(C#Cc3ccc(OC)c(OC)c3)n2C)n(Cc2ccoc2)c1=O [drawing 509] | 5.16 ± 1.91 nM | > 1000 nM |
| C#CCn1c(=O)c2c(nc(C#Cc3ccsc3)n2C)n(CC)c1=O [drawing 510] | 108 ± 31 nM | > 1000 nM |
| C#CCn1c(=O)c2c(nc(C#Cc3cccc(OCC)c3)n2C)n(C)c1=O | 174 ± 42 nM | ~10000 nM |
| C#CCn1c(=O)c2c(nc(C#Cc3ccc(OC)c(F)c3)n2C)n(C)c1=O | 194 ± 39 nM | > 1000 nM |
| C#CCn1c(=O)c2c(nc(C#Cc3ccc(OC)c(OC)c3)n2C)n(CC(C)O)c1=O (stereo not drawn) [drawing 502] | 13.3 ± 1.4 nM | 189 ± 33 nM |
| C#CCn1c(=O)c2c(nc(C#Cc3cccc(OC)c3)n2C)n(CCBr)c1=O | 90 ± 25 nM | > 1000 nM |
| C#CCn1c(=O)c2c(nc(C#Cc3ccc(OC)c(OC)c3)n2C)n(CCCC#N)c1=O [drawing 508] | 22.9 ± 7.6 nM | > 1000 nM |
| C#CCn1c(=O)c2c(nc(C#Cc3ccc(OC)c(OC)c3)n2C)n(CC(=C)C)c1=O | 28.6 ± 9.7 nM | > 1000 nM |

| Compound | Ki (Rat A2A AR) | Ki (Rat A1 AR) |
| --- | --- | --- |
| C#CCn1c(=O)c2c(nc(C#Cc3cccc(OC)c3)n2CC#N)n(C)c1=O | 56.2 ± 12.9 nM | > 1000 nM |
| C#CCn1c(=O)c2c(nc(C#Cc3ccc(OC)c(OC)c3)n2C)n(CCN(C)C)c1=O [drawing 489] | 54 ± 5 nM | 810 ± 145 nM |
| C#CCn1c(=O)c2c(nc(C#Cc3ccc(OCC)c(OCC)c3)n2C)n(C)c1=O | 951 ± 224 nM | > 1000 nM |
| C#CCn1c(=O)c2c(nc(C#Cc3ccc(OC)c(OC)c3)n2C)n(CCCO)c1=O [drawing 533] | 30.1 ± 5.4 nM | 337 ± 67 nM |
| C#CCn1c(=O)c2c(nc(C#Cc3cccc(OC)c3)n2C)n(C)c1=O [drawing 456] | 30.9 ± 8 nM | > 10000 nM |
| C#CCn1c(=O)c2c(nc(C#Cc3cccc(OC)c3)n2C)n(CCC2OCCO2)c1=O | 120 ± 18 nM | ≥ 1000 nM |
| C#CCn1c(=O)c2c(nc(C#Cc3ccc(OC)c(OC)c3)n2C)n(CC(O)CO)c1=O (stereo not drawn) [drawing 493] | 42.3 ± 5.7 nM | ≥ 1000 nM |
| C#CCn1c(=O)c2c(nc(C#Cc3cccc(C)c3)n2C)n(C)c1=O [drawing 460] | 43.4 ± 11.6 nM | > 10000 nM |
| C#CCn1c(=O)c2c(nc(C#Cc3cccc(OCCOC)c3)n2C)n(C)c1=O [drawing 471] | 219 ± 52 nM | ≥ 10000 nM |
| C#CCn1c(=O)c2c(nc(C#Cc3ccc(OC)c(OC)c3)n2C)n(C(C)C(C)=O)c1=O (stereo not drawn) [drawing 524] | 16 ± 6 nM | 157 ± 12 nM |
| C#CCn1c(=O)c2c(nc(C#Cc3cccc(OCCO)c3)n2C)n(C)c1=O [drawing 469] | 117 ± 25 nM | ≥ 10000 nM |
| C#CCn1c(=O)c2c(nc(C#Cc3ccc(OC)c(OC)c3)n2C)n(CC#N)c1=O [drawing 500] | 40 ± 0.6 nM | > 1000 nM |
| C#CCn1c(=O)c2c(nc(C#Cc3cccc(OC(C)=O)c3)n2C)n(C)c1=O [drawing 472] | 140 ± 12 nM | 1170 ± 731 nM |
| C#CCn1c(=O)c2c(nc(C#Cc3ccc(OC)c(OC)c3)n2C)n(CCCOC)c1=O [drawing 506] | 44 ± 6.2 nM | > 1000 nM |
| C#CCn1c(=O)c2c(nc(C#Cc3ccccc3)n2C)n(C)c1=O [drawing 452] | 186 ± 60 nM | > 1000 nM |
| C#CCn1c(=O)c2c(nc(C#Cc3cccc(Cl)c3)n2C)n(C)c1=O [drawing 461] | 46 ± 9 nM | > 10000 nM |
| C#CCn1c(=O)c2c(nc(C#Cc3ccc(OC)c(OC)c3)n2C)n(CCC(=O)CC)c1=O | 103 ± 15 nM | 111 ± 26 nM |
| C#CCn1c(=O)c2c(nc(C#Cc3cccc(OCC=C)c3)n2C)n(C)c1=O | 152 ± 63 nM | ≥ 10000 nM |
| C#CCn1c(=O)c2c(nc(C#Cc3ccc(OCC)c(OCC)c3)n2C)n(CC)c1=O [drawing 497] | 166 ± 50 nM | > 1000 nM |

Now from value to molecule:

| Ki (Rat A2A AR) | Ki (Rat A1 AR) | Compound |
| --- | --- | --- |
| 36.5 ± 6.1 nM | 286 ± 11 nM | C#CCn1c(=O)c2c(nc(C#Cc3ccc(OC)c(OC)c3)n2C)n(CC(=O)OC)c1=O [drawing 546] |
| 38.2 ± 12 nM | > 1000 nM | C#CCn1c(=O)c2c(nc(C#Cc3cccc(OC)c3)n2C)n(CC2CO2)c1=O (stereo not drawn) |
| 35.6 ± 14.1 nM | > 1000 nM | C#CCn1c(=O)c2c(nc(C#Cc3ccc(OC)c(OC)c3)n2C)n(CCOCC)c1=O |
| 167 ± 82 nM | ≥ 1000 nM | C#CCn1c(=O)c2c(nc(C#Cc3ccc(OC)c(OC)c3)n2C)n(CC(=O)OCC)c1=O |
| 6.74 ± 1 nM | 76.8 ± 22.9 nM | C#CCn1c(=O)c2c(nc(C#Cc3ccc(OC)c(OC)c3)n2C)n(Cc2ccco2)c1=O [drawing 503] |
| 28 ± 4.2 nM | > 1000 nM | C#CCn1c(=O)c2c(nc(C#Cc3ccc(OC)c(OC)c3)n2C)n(Cc2ccsc2)c1=O |
| 70.3 ± 5.39 nM | > 1000 nM | C#CCn1c(=O)c2c(nc(C#Cc3ccc(F)c(OC)c3)n2C)n(C)c1=O |
| 16.3 ± 2.8 nM | ≥ 1000 nM | C#CCn1c(=O)c2c(nc(C#Cc3ccc(OC)c(OC)c3)n2C)n(CCCF)c1=O |
| 11.7 ± 1.7 nM | 209 ± 42 nM | C#CCn1c(=O)c2c(nc(C#Cc3ccc(OC)c(OC)c3)n2C)n(CCCCF)c1=O |
| 90 ± 35.7 nM | ≥ 10000 nM | C#CCn1c(=O)c2c(nc(C#Cc3cccc(OC)c3)n2CC#C)n(C)c1=O [drawing 467] |
| 103 ± 15 nM | > 1000 nM | C#CCn1c(=O)c2c(nc(C#Cc3cccc(OC)c3)n2C)n(CCO)c1=O [drawing 491] |
| 119 ± 26 nM | 460 ± 61 nM | C#CCn1c(=O)c2c(nc(C#Cc3cncn3C)n2C)n(CC)c1=O [drawing 511] |
| 118 ± 19 nM | ≥ 1000 nM | C#CCn1c(=O)c2c(nc(C#Cc3ccc(OC)c(OC)c3)n2C)n(C(C)C)c1=O [drawing 516] |
| > 10000 nM | > 10000 nM | C#CCn1c(=O)c2c(nc(C#Cc3ccccc3OC)n2C)n(C)c1=O |
| 141 ± 28 nM | 488 ± 253 nM | C#CCn1c(=O)c2c(nc(C#Cc3cccc(Cl)c3)n2C)n(CC)c1=O |
| 69.8 ± 17.1 nM | > 1000 nM | C#CCn1c(=O)c2c(nc(C#Cc3cccc(OC)c3)n2C)n(CC(O)CO)c1=O (stereo not drawn) [drawing 492] |
| 161 ± 35 nM | > 1000 nM | C#CCn1c(=O)c2c(nc(C#Cc3cccc(OC)c3)n2C)n(CCN(C)C)c1=O [drawing 536] |
| 13.4 ± 6.5 nM | ≥ 1000 nM | C#CCn1c(=O)c2c(nc(C#Cc3ccc(OC)c(OC)c3)n2C)n(CCC)c1=O [drawing 515] |
| 4340 ± 840 nM | > 10000 nM | C#CCn1c(=O)c2c(nc(C#Cc3cc(C)c(C)cc3C)n2C)n(C)c1=O |
| 132 ± 60 nM | > 1000 nM | C#CCn1c(=O)c2c(nc(C#Cc3ccc(OC)c(OC)c3)n2CC#C)n(CC)c1=O |
| 211 ± 46 nM | ≥ 10000 nM | C#CCn1c(=O)c2c(nc(C#Cc3cccc(OCCCO)c3)n2C)n(C)c1=O [drawing 468] |
| 90.9 ± 7 nM | 208 ± 54 nM | CCn1c(=O)n(Cc2ccco2)c(=O)c2c1nc(C#Cc1ccc(OC)c(OC)c1)n2C |
| 80.7 ± 21.1 nM | > 10000 nM | C#CCn1c(=O)c2c(nc(C#Cc3cccc(OC)c3)n2C)n(CC#C)c1=O |
| 91.7 ± 38.3 nM | > 1000 nM | C#CCn1c(=O)c2c(nc(C#Cc3ccc(OC)c(OC)c3)n2C)n(CC(=O)CC)c1=O |
| 24.2 ± 3.8 nM | 234 ± 47 nM | C#CCn1c(=O)c2c(nc(C#Cc3ccc(OC)c(OC)c3)n2C)n(CCC(F)(F)F)c1=O |
| 190 ± 50 nM | > 10000 nM | C#CCn1c(=O)c2c(nc(C#Cc3cc(OC)cc(OC)c3)n2C)n(C)c1=O |
| 90.7 ± 11.2 nM | 1250 ± 106 nM | CCn1c(=O)n(Cc2ccoc2)c(=O)c2c1nc(C#Cc1ccc(OC)c(OC)c1)n2C |

Reference: patent US20080221134A1, “8-ALKYNYLXANTHINES AND DERIVATIVES” (priority 2006, published 2008)
